Assay results published in patent publication US11360104B2, “Microbial-based biosensors” (TRUSTEES OF BOSTON UNIVERSITY, priority 2017, dated 2022).
{Cy5} = Cy5 fluorescent dye attached at the strand end

Tests used:
Type in all cases: biochemical
PinR = PinR (Nocardioides simplex (Pimelobacter simplex), UniProt A0A0A1DUF2); test: Cross-reactivity assay of steroids using sensor 3; settings: sensor 3, HEPES 1×, 0 to 10 uM of steroids
Procedure: The cross-reactivity of progesterone regarding the different steroids was calculated with the following equation:
Description for a typical experiment, using a molar ratio of QD/TF/DNA=1/4/18.
50 uL of the sensor (QD/TF/DNA) was then splitted in 3×9 centrifuge tubes to which 10 uL of progesterone at the desired concentration is added. […] A 384 well plate was filled with 60 uL of each solution. The fluorescence intensity was monitored on a spectrofluorimeter from 535 nm to 800 nm exciting at 400 nm, equipped with a 450 nm long-pass filter in emission.

[1] = tested on: Pimelobacter simplex PinR (AIY20223.2; SEQ ID NO: 1), his-tagged (AIY-his6); test: QD-FRET steroid sensor (QD-PinR + DNA-Cy5), steroid-induced TF-DNA unbinding; settings: sensor 3 in HEPES 1×; 0 to 10 uM steroid
Procedure: (§1) Fluorescent spectra were analyzed using MATLAB (Mathworks) and were fitted with a sum of 2 Gaussians (D=QD: FWHM=27 nm, λmax=607 nm; A=DNA-Cy5: FWHM=40 nm, λmax=669 nm). The area of each Gaussian was extracted and FD and FA are obtained respectively for the fluorescence of QD (donor) and Cy5 (acceptor).
Raw dose-response curves were obtained by plotting FA/FD as a function of the steroid concentration. Sensor output is the normalization of the fluorescent spectra of the donor and acceptor according to the following equation: […]
Non-normalized dose-response were fitted with Origin Pro 8 software with the non-linear equation: […]
The cross-reactivity of progesterone regarding the different steroids was calculated with the following equation: […]
CdSe/CdS/ZnS QDs were coated with a zwitterionic polymer bearing histamine anchoring functions (P1, SI). Once the hydrophobic QDs were transferred into H2O using a biphasic ligand exchange, his-tagged TFs were self-assembled on the QD surface to produce the QD-TF. Addition of the double stranded, Cy5-labeled TF-binding sequence completed probe assembly as the oligo binds to the TF in the absence of progesterone (PRG). The molar ratios of the QD, TF, and DNA in the sensor were controlled through the stoichiometric ratios of the mixed parts.
Two fluorescent spectra were recorded, one from the QDs and one from the Cy5 due to the FRET.
First, the DNA1 (most binding sequence) has been used to build the first biosensor, named sensor 1. For this sensor, a ratio of QD/TF/DNA of 1/4/18 was chosen. […] In order to homogenize the fluorescent signals in between batches and different sensor variations, FA/FD was normalized to give the signal output. Signal output is then plotted against PRG concentration to give a dose-response curve (FIG. 9C) This curve was fitted with the non-linear equation XX to obtain the half-maximal inhibitory concentration (IC50) (Table 13).
(§2) Description for a typical experiment, using a molar ratio of QD/TF/DNA=1/4/18. QDs in (275 uL, 0.15 uM in HEPES 1×, pH 7.6 with 1% BSA) were mixed with AIY-his6 (275 uL, 0.6 uM in HEPES 1× pH 7.6) at room temperature for 45 min. Then, the double-stranded DNA labelled with a Cy5 fluorescent probe at the 3′ and 5′ ends (275 uL, 2.7 uM in HEPES 1× pH 7.6) was added to the mixture. After 30 min, 220 uL of HEPES 1× pH 7.5 and 330 uL of 5× binding buffer (25 mM MgCl2, 25% glycerol, and 250 mg/L Invitrogen™ UltraPure™ Salmon Sperm DNA in Tris-HCl 0.1M) were added and the mixture is left 15 more min at RT.
(§3) 50 uL of the sensor (QD/TF/DNA) was then splitted in 3×9 centrifuge tubes to which 10 uL of progesterone at the desired concentration is added. As such, the final concentration of QD/TF/DNA for the measurements is 25 nM/100 nM/450 nM. A 384 well plate was filled with 60 uL of each solution. The fluorescence intensity was monitored on a spectrofluorimeter from 535 nm to 800 nm exciting at 400 nm, equipped with a 450 nm long-pass filter in emission.

[2] = QD-FRET sensor progesterone titration in HEPES 1×
Procedure: as §1
Raw dose-response curves were obtained by plotting FA/FD as a function of the steroid concentration. Sensor output is the normalization of the fluorescent spectra of the donor and acceptor according to the following equation:
[formula] Where F=FA/FD, Fi is for [PRG]=i, Fmin stands for the average on 3 experiments of F for [PRG]=0 nM and Fmax stands for the average on 3 experiments of F for [PRG]=10 uM.
Non-normalized dose-response were fitted with Origin Pro 8 software with the non-linear equation:
Mathematically, the limit of detection in the signal domain (LD) is given by:LD=meanblank−3.3×σtest LD=meanblank−3.3×σtest where meanblank is the mean signal for a reagent blank and σtest is the pool standard deviation for all test samples in the dilution series, calculated as[9]:
Then the Limit of detection (LOD) is calculated using the parameters of the fit with the non-linear equation (XX) for y=LD:
as §2, §3

Chain of PinR (A0A0A1DUF2 entry or part of it): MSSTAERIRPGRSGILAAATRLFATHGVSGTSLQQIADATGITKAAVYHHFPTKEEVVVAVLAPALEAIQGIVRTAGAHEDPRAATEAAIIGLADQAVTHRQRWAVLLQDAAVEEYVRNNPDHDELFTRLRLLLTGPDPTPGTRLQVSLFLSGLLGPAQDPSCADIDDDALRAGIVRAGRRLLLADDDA

CC(C)CCC[C@@H](C)[C@H]1CC[C@H]2[C@@H]3CC=C4C[C@@H](O)CC[C@]4(C)[C@H]3CC[C@]12C [CHL, Cholesterol]
cross-reactivity (PinR): No cross-reactivity | cross-reactivity (in words) [1]: No cross-reactivity was observed

C[C@H](O)[C@H]1CC[C@H]2[C@@H]3CC[C@@H]4C[C@H](O)CC[C@]4(C)[C@H]3CC[C@]12C [PRE, 5β-Pregnane-3α,20-α-diol]
cross-reactivity (PinR): No cross-reactivity | cross-reactivity (in words) [1]: No cross-reactivity was observed

C[C@H](O)[C@H]1CC[C@H]2[C@@H]3CC[C@@H]4C[C@H](O[C@@H]5O[C@H](C(=O)O)[C@@H](O)[C@H](O)[C@H]5O)CC[C@]4(C)[C@H]3CC[C@]12C [PRE-glu, 5β-Pregnane-3α,20-α-diol glucuronide]
cross-reactivity (PinR): No cross-reactivity | cross-reactivity (in words) [1]: No cross-reactivity was observed

DNA1: Cy5-labelled PinR binding probe 5Cy5-GCCTAACTAGCCGTTCGGCTAGTTATTC-3Cy5 (SEQ ID NO: 24) (DNA, 5' {Cy5}, 3' {Cy5}, backbone and methylation of C not given here; hybridized with complementary strand to form double-stranded fluorescent oligo)
[Pro]min ([2]; QD/TF/DNA=1/4/18, [QD]=25 nM): 0.073 µM

DNA2: Cy5-labelled PinR binding probe 5Cy5-GCCTAACTAGCCGATCGGCTAGTCATTC-3Cy5 (SEQ ID NO: 26) (DNA, 5' {Cy5}, 3' {Cy5}, backbone and methylation of C not given here; hybridized with complementary strand to form double-stranded fluorescent oligo)
[Pro]min ([2]; QD/TF/DNA=1/4/18, [QD]=25 nM): 0.051 µM

DNA3: Cy5-labelled PinR binding probe 5Cy5-GCCTAACTAGCCGTTCGGCAAGTAATTC-3Cy5 (SEQ ID NO: 28) (DNA, 5' {Cy5}, 3' {Cy5}, backbone and methylation of C not given here; hybridized with complementary strand to form double-stranded fluorescent oligo)
[Pro]min ([2]; DNA 3, QD/TF/DNA 1/1/2): 0.040 µM | [Pro]min ([2]; DNA 3, QD/TF/DNA 1/1/18): 0.072 µM | [Pro]min ([2]; DNA 3, QD/TF/DNA 1/2/2): 0.053 µM | [Pro]min ([2]; DNA 3, QD/TF/DNA 1/2/18): 0.070 µM | [Pro]min ([2]; DNA 3, QD/TF/DNA 1/4/2): 0.050 µM | [Pro]min ([2]; DNA 3, QD/TF/DNA 1/4/18): 0.040 µM | [Pro]min ([2]; DNA 3, QD/TF/DNA 1/10/18): 0.065 µM | [Pro]min ([2]; DNA 3, QD/TF/DNA 1/16/18): 0.075 µM | [Pro]min ([2]; QD/TF/DNA=1/4/18, [QD]=25 nM): 0.040 µM

DNA4: Cy5-labelled PinR binding probe 5Cy5-CCTTAACTAGCCGTTCTGTTAGTTATT C-3Cy5 (SEQ ID NO: 30) (DNA CCTTAACTAGCCGTTCTGTTAGTTATTC; DNA, 5' {Cy5}, 3' {Cy5}, backbone and methylation of C not given here; hybridized with complementary strand to form double-stranded fluorescent oligo)
[Pro]min ([2]; DNA 4, QD/TF/DNA 1/1/4): 0.024 µM | [Pro]min ([2]; DNA 4, QD/TF/DNA 1/1/18): 0.017 µM | [Pro]min ([2]; DNA 4, QD/TF/DNA 1/4/9): 0.066 µM | [Pro]min ([2]; DNA 4, QD/TF/DNA 1/4/18): 0.044 µM | [Pro]min ([2]; DNA 4, QD/TF/DNA 1/16/8): 0.190 µM | [Pro]min ([2]; QD/TF/DNA=1/4/18, [QD]=25 nM): 0.044 µM
